In patent US20260234115A1, “LIPID COMPOUNDS, COMPOSITIONS, AND USES THEREOF” (Liberate Bio, Inc., priority 2023, published 2026):
Marks after values point to notes of the source that are not given here.

Tested on: mouse organs
Assay: In vivo activity screening in mice: organ mean total flux (p/s) of luciferase activity after injection of F2 LNP pools (Table 6, FIG. 7A-7C)
Conditions: luciferase mRNA
Protocol: Small rodent biodistribution studies were performed in mice (e.g., C57BL/6J, Balb-c, CD-1, etc.). For evaluating LNP biodistribution and tissue activity upon systemic administration, C57BL/6J mice received dose administration by single intravenous injection via tail vein with LNP formulations (individual or pooled) in PBS, at different dose (0.25-3 mg/kg) levels of firefly luciferase mRNA. At predetermined time points (4-6 hours post-injection), the animals were anesthetized via isoflurane and subjected to in-life imaging sessions for bioluminescence using an In Vivo Imaging System (IVIS). All animals were dosed with D-Luciferin at 15 mg/mL via subcutaneous (SC) injection at 0.2 mL/animal. Animals had their abdomen hair shaved using an animal trimmer. They were then placed so their shaved belly faced up toward the IVIS camera. Whole body imaging sessions were performed 10-15 minutes following D-Luciferin administration.
For in detail organ distribution and activity of LNP formulations, ex vivo imaging sessions were also performed. All animals received SC D-Luciferin and were then euthanized by isoflurane overdose, followed by cardiac perfusion with saline. Following perfusion, the organs were collected and subjected to IVIS imaging for luminescence within 10-15 minutes of D-Luciferin injection.
All IVIS images were processed with a computer software to identify the regions of interests for individual organs to detect the total flux (p/s) values as luminescence quantification. Then the total flux values were graphed to evaluate the in vivo activity in each collected organ.
Small rodent biodistribution studies were performed in mice according to the General Study Protocols in Example 3(a). LNPs incorporating lipid compounds were prepared in Formulation F2, with MC3 as lipid compound (Cayman Chemical) prepared using Formulation F2 for comparison. LNP pools (with firefly luciferase mRNA encapsulated) were injected into mice at varying doses, and organ mean total flux (p/s) results (measuring luciferase activity) were then collected according to Example 3(a).
LNPs comprising MC3 used as a control and for cross-mouse comparison. Dose is in mg/kg; LC is Lipid Compound according to Table 1.
Additional screening results for Compounds 7, 13, 14, 26, 33, 38, 39, 40, 48, 60, 61, 89, 103, and 109 in spleen, femur, and muscle are shown in FIG. 7A, FIG. 7B, and FIG. 7C, with MC3 as a used as a control for comparison.

Compound: CCCCCCCCCC(C)OC(=O)CCCCCCC(=O)OCC(COC(=O)CCCCCCC(=O)OC(C)CCCCCCCCC)(COC(=O)CCCCCCC(=O)OC(C)CCCCCCCCC)COC(=O)CCC(CCCCCC)OC(=O)NCCN1CCCC1 (stereo not drawn) [Compound 41, O1-[2,2-bis[[8-(1-methyldecoxy)-8-oxo-octanoyl]oxymethyl]-3-[4-(2-pyrrolidin-1-ylethylcarbamoyloxy)decanoyloxy]propyl]O8-(1-methyldecyl) octanedioate]
- Organ Mean Total Flux Femur (Mouse 5, dose 0.5 mg/kg): 3.8 p/s (×10^6)
- Organ Mean Total Flux Heart (Mouse 5, dose 0.5 mg/kg): 2.2 p/s (×10^6)
- Organ Mean Total Flux Kidney (Mouse 5, dose 0.5 mg/kg): 2.8 p/s (×10^6)
- Organ Mean Total Flux Liver (Mouse 5, dose 0.5 mg/kg): 3493 p/s (×10^6)
- Organ Mean Total Flux Lung (Mouse 5, dose 0.5 mg/kg): 18.0 p/s (×10^6)
- Organ Mean Total Flux Muscle (Mouse 5, dose 0.5 mg/kg): 10.0 p/s (×10^6)
- Organ Mean Total Flux Pancreas (Mouse 5, dose 0.5 mg/kg): 0.8 p/s (×10^6)
- Organ Mean Total Flux Spleen (Mouse 5, dose 0.5 mg/kg): 2.5 p/s (×10^6)

Compound: CCCCCCCCCOC(=O)CCCCCC(=O)OCC(COC(=O)CCCCCC(=O)OCCCCCCCCC)(COC(=O)CCCCCC(=O)OCCCCCCCCC)COC(=O)CCC(CCCCCC)OC(=O)NCCN1CCCC1 (stereo not drawn) [Compound 24, O7-[2,2-bis[(7-nonoxy-7-oxo-heptanoyl)oxymethyl]-3-[4-(2-pyrrolidin-1-ylethylcarbamoyloxy)decanoyloxy]propyl]O1-nonyl heptanedioate]
- Organ Mean Total Flux Femur (Mouse 6, dose 0.5 mg/kg): 6.3 p/s (×10^6)
- Organ Mean Total Flux Heart (Mouse 6, dose 0.5 mg/kg): 7.1 p/s (×10^6)
- Organ Mean Total Flux Kidney (Mouse 6, dose 0.5 mg/kg): 5.7 p/s (×10^6)
- Organ Mean Total Flux Liver (Mouse 6, dose 0.5 mg/kg): 4153 p/s (×10^6)
- Organ Mean Total Flux Lung (Mouse 6, dose 0.5 mg/kg): 28.8 p/s (×10^6)
- Organ Mean Total Flux Muscle (Mouse 6, dose 0.5 mg/kg): 12.1 p/s (×10^6)
- Organ Mean Total Flux Pancreas (Mouse 6, dose 0.5 mg/kg): 7.9 p/s (×10^6)
- Organ Mean Total Flux Spleen (Mouse 6, dose 0.5 mg/kg): 10.7 p/s (×10^6)

Compound: CCCCC/C=C\CCOC(=O)CCCCC(=O)OCC(COC(=O)CCCCC(=O)OCC/C=C\CCCCC)(COC(=O)CCC(CCCCCCCC)OC(=O)NCCN1CCCC1)COC(=O)CC12CC3CC(CC(C3)C1)C2 (stereo not drawn) [Compound 66, O6-[2-[[2-(1-adamantyl)acetyl]oxymethyl]-2-[[6-[(Z)-non-3-enoxy]-6-oxohexanoyl]oxymethyl]-3-[4-(2-pyrrolidin-1-ylethylcarbamoyloxy)dodecanoyloxy]propyl]O1-[(Z)-non-3-enyl]hexanedioate]
- Organ Mean Total Flux Femur (Mouse 9, dose 0.5 mg/kg): 5.5 p/s (×10^6)
- Organ Mean Total Flux Heart (Mouse 9, dose 0.5 mg/kg): 1.3 p/s (×10^6)
- Organ Mean Total Flux Kidney (Mouse 9, dose 0.5 mg/kg): 1.8 p/s (×10^6)
- Organ Mean Total Flux Liver (Mouse 9, dose 0.5 mg/kg): 68.9 p/s (×10^6)
- Organ Mean Total Flux Lung (Mouse 9, dose 0.5 mg/kg): 14.1 p/s (×10^6)
- Organ Mean Total Flux Muscle (Mouse 9, dose 0.5 mg/kg): 11.3 p/s (×10^6)
- Organ Mean Total Flux Pancreas (Mouse 9, dose 0.5 mg/kg): 4.0 p/s (×10^6)
- Organ Mean Total Flux Spleen (Mouse 9, dose 0.5 mg/kg): 7.8 p/s (×10^6)

Compound: CCCCC/C=C\CCOC(=O)CCCCCCC(=O)OCC(COC(=O)CCCCCCC(=O)OCC/C=C\CCCCC)(COC(=O)CCCCCCC(=O)OCC/C=C\CCCCC)COC(=O)CCC(CCCCCC)OC(=O)OCCCN1CCCC1 (stereo not drawn) [Compound 31, O8-[2,2-bis[[8-[(Z)-non-3-enoxy]-8-oxo-octanoyl]oxymethyl]-3-[4-(3-pyrrolidin-1-ylpropoxycarbonyloxy)decanoyloxy]propyl]O1-[(Z)-non-3-enyl]octanedioate]
- Organ Mean Total Flux Femur (Mouse 5, dose 0.5 mg/kg): 0.9 p/s (×10^6)
- Organ Mean Total Flux Heart (Mouse 5, dose 0.5 mg/kg): 0.1 p/s (×10^6)
- Organ Mean Total Flux Kidney (Mouse 5, dose 0.5 mg/kg): 0.1 p/s (×10^6)
- Organ Mean Total Flux Liver (Mouse 5, dose 0.5 mg/kg): 26.8 p/s (×10^6)
- Organ Mean Total Flux Lung (Mouse 5, dose 0.5 mg/kg): 1.2 p/s (×10^6)
- Organ Mean Total Flux Muscle (Mouse 5, dose 0.5 mg/kg): 1.0 p/s (×10^6)
- Organ Mean Total Flux Pancreas (Mouse 5, dose 0.5 mg/kg): 0.2 p/s (×10^6)
- Organ Mean Total Flux Spleen (Mouse 5, dose 0.5 mg/kg): 2.0 p/s (×10^6)

Compound: CCCCC/C=C\CCOC(=O)CCCCC(=O)OCC(COC(=O)CCCCC(=O)OCC/C=C\CCCCC)(COC(=O)CCC(CCCCCC)OC(=O)NCCN1CCCC1)COC(=O)C1CCC2C(C1)C2(F)F (stereo not drawn) [Compound 103, O6-[2-[(7,7-difluoronorcarane-3-carbonyl)oxymethyl]-2-[[6-[(Z)-non-3-enoxy]-6-oxo-hexanoyl]oxymethyl]-3-[4-(2-pyrrolidin-1ylethylcarbamoyloxy)decanoyloxy]propyl]O1-[(Z)-non-3-enyl]hexanedioate]
- Organ Mean Total Flux Femur (Mouse 13, dose 0.5 mg/kg): 26.0 p/s (×10^6)
- Organ Mean Total Flux Heart (Mouse 13, dose 0.5 mg/kg): 0.8 p/s (×10^6)
- Organ Mean Total Flux Kidney (Mouse 13, dose 0.5 mg/kg): 2.4 p/s (×10^6)
- Organ Mean Total Flux Liver (Mouse 13, dose 0.5 mg/kg): 444.3 p/s (×10^6)
- Organ Mean Total Flux Lung (Mouse 13, dose 0.5 mg/kg): 16.0 p/s (×10^6)
- Organ Mean Total Flux Muscle (Mouse 13, dose 0.5 mg/kg): 4.5 p/s (×10^6)
- Organ Mean Total Flux Pancreas (Mouse 13, dose 0.5 mg/kg): 13.5 p/s (×10^6)
- Organ Mean Total Flux Spleen (Mouse 13, dose 0.5 mg/kg): 161.3 p/s (×10^6)

Compound: CCCCC/C=C\CCOC(=O)CCCC(=O)OCC(COC(=O)CCCC(=O)OCC/C=C\CCCCC)(COC(=O)CCCC(=O)OCC/C=C\CCCCC)COC(=O)CCC(CCCCCC)OC(=O)NCCN1CCCC1 (stereo not drawn) [Compound 49, O5-[2,2-bis[[5-[(Z)-non-3-enoxy]-5-oxo-pentanoyl]oxymethyl]-3-[4-(2-pyrrolidin-1-ylethylcarbamoyloxy)decanoyloxy]-propyl]O1-[(Z)-non-3-enyl]pentanedioate]
- Organ Mean Total Flux Femur (Mouse 13, dose 0.5 mg/kg): 10.2 p/s (×10^6)
- Organ Mean Total Flux Heart (Mouse 13, dose 0.5 mg/kg): 0.5 p/s (×10^6)
- Organ Mean Total Flux Kidney (Mouse 13, dose 0.5 mg/kg): 1.4 p/s (×10^6)
- Organ Mean Total Flux Liver (Mouse 13, dose 0.5 mg/kg): 185.5 p/s (×10^6)
- Organ Mean Total Flux Lung (Mouse 13, dose 0.5 mg/kg): 11.8 p/s (×10^6)
- Organ Mean Total Flux Muscle (Mouse 13, dose 0.5 mg/kg): 2.9 p/s (×10^6)
- Organ Mean Total Flux Pancreas (Mouse 13, dose 0.5 mg/kg): 7.5 p/s (×10^6)
- Organ Mean Total Flux Spleen (Mouse 13, dose 0.5 mg/kg): 57.1 p/s (×10^6)

Compound: CCCCCCCCOC(=O)CCCCCCC(=O)OCC(COC(=O)CCCCCCC(=O)OCCCCCCCC)(COC(=O)CCCCCCC(=O)OCCCCCCCC)COC(=O)CCC(CCCCCC)OC(=O)NCCN1CCCC1 (stereo not drawn) [Compound 33, O8-[2,2-bis[(8-octoxy-8-oxo-octanoyl)oxymethyl]-3-[4-(2-pyrrolidin-1-ylethylcarbamoyloxy)decanoyloxy]propyl]O1-octyl octanedioate]
- Organ Mean Total Flux Femur (Mouse 6, dose 0.5 mg/kg): 21.3 p/s (×10^6)
- Organ Mean Total Flux Heart (Mouse 6, dose 0.5 mg/kg): 2.8 p/s (×10^6)
- Organ Mean Total Flux Kidney (Mouse 6, dose 0.5 mg/kg): 3.0 p/s (×10^6)
- Organ Mean Total Flux Liver (Mouse 6, dose 0.5 mg/kg): 1024 p/s (×10^6)
- Organ Mean Total Flux Lung (Mouse 6, dose 0.5 mg/kg): 16.9 p/s (×10^6)
- Organ Mean Total Flux Muscle (Mouse 6, dose 0.5 mg/kg): 53.7 p/s (×10^6)
- Organ Mean Total Flux Pancreas (Mouse 6, dose 0.5 mg/kg): 9.2 p/s (×10^6)
- Organ Mean Total Flux Spleen (Mouse 6, dose 0.5 mg/kg): 30.1 p/s (×10^6)

Compound: CCCCC/C=C\CCOC(=O)CCCCC(=O)OCC(COC(=O)CCCCC(=O)OCC/C=C\CCCCC)(COC(=O)CCC(CCCCCC)OC(=O)NCCN1CCCC1)COC(=O)[C@]12CC[C@H](CC1)C2 (stereo partly drawn) [Compound 99, O6-[2-[[6-[(Z)-non-3-enoxy]-6-oxo-hexanoyl]oxymethyl]-2-(norbornane-1-carbonyloxymethyl)-3-[4-(2-pyrrolidin-1-ylethylcarbamoyloxy)decanoyloxy]propyl]O1-[(Z)-non-3-enyl]hexanedioate]
- Organ Mean Total Flux Femur (Mouse 12, dose 0.5 mg/kg): 7.2 p/s (×10^6)
- Organ Mean Total Flux Heart (Mouse 12, dose 0.5 mg/kg): 0.4 p/s (×10^6)
- Organ Mean Total Flux Kidney (Mouse 12, dose 0.5 mg/kg): 1.2 p/s (×10^6)
- Organ Mean Total Flux Liver (Mouse 12, dose 0.5 mg/kg): 177.0 p/s (×10^6)
- Organ Mean Total Flux Lung (Mouse 12, dose 0.5 mg/kg): 31.4 p/s (×10^6)
- Organ Mean Total Flux Muscle (Mouse 12, dose 0.5 mg/kg): 6.5 p/s (×10^6)
- Organ Mean Total Flux Pancreas (Mouse 12, dose 0.5 mg/kg): 4.3 p/s (×10^6)
- Organ Mean Total Flux Spleen (Mouse 12, dose 0.5 mg/kg): 47.5 p/s (×10^6)

Compound: CCCCCCCCC(C)OC(=O)CCCCCCC(=O)OCC(COC(=O)CCCCCCC(=O)OC(C)CCCCCCCC)(COC(=O)CCCCCCC(=O)OC(C)CCCCCCCC)COC(=O)CCC(CCCCCC)OC(=O)NCCN1CCCC1 (stereo not drawn) [Compound 39, O1-[2,2-bis[[8-(1-methylnonoxy)-8-oxo-octanoyl]oxymethyl]-3-[4-(2-pyrrolidin-1-ylethylcarbamoyloxy)decanoyloxy]propyl]O8-(1-methylnonyl) octanedioate]
- Organ Mean Total Flux Femur (Mouse 11, dose 0.5 mg/kg): 2.6 p/s (×10^6)
- Organ Mean Total Flux Heart (Mouse 11, dose 0.5 mg/kg): 6.5 p/s (×10^6)
- Organ Mean Total Flux Kidney (Mouse 11, dose 0.5 mg/kg): 2.3 p/s (×10^6)
- Organ Mean Total Flux Liver (Mouse 11, dose 0.5 mg/kg): 3390 p/s (×10^6)
- Organ Mean Total Flux Lung (Mouse 11, dose 0.5 mg/kg): 19.6 p/s (×10^6)
- Organ Mean Total Flux Muscle (Mouse 11, dose 0.5 mg/kg): 11.0 p/s (×10^6)
- Organ Mean Total Flux Pancreas (Mouse 11, dose 0.5 mg/kg): 1.1 p/s (×10^6)
- Organ Mean Total Flux Spleen (Mouse 11, dose 0.5 mg/kg): 2.9 p/s (×10^6)
